Reference: PMC11538350, “Synthetic studies on the tetrasubstituted D-ring of cystobactamids lead to potent terephthalic acid antibiotics” (Communications Chemistry, 2024)
Values after ≈ are worked out from the molar mass of the structure shown.

Experiments:
E. ae. CIP 106754 = assay: MIC assay; type: cell-based, Enterobacter aerogenes; conditions: Klebsiella aerogenes, CIP106754, read-out: MIC E. ae. CIP 106754
Experimental: (§1) All cystobactamids were evaluated in MIC-assays on a panel of representative ESKAPE strains with focus on A. baumannii (Tables 1 and 2). Compared to our previous work[10],[17],[18], we specifically included more challenging test strains with known resistances against gyrase inhibitors.
(§2) 2.1 Materials and Methods
(§3) Strains were cultivated according to standard procedures. Bacterial cryo-cultures were
(§4) resuspended into fresh MHBII (cation adjusted) medium. The resuspension
(§5) assay plate (Corning, #3788).
(§6) in parallel as a positive control. […]

A. baum. ATCC BAA-1710 = assay: MIC assay; type: cell-based; conditions: Acinetobacter baumannii, ATCCBAA1710; read-out: MIC A. baum. ATCC BAA-1710
Experimental: as §1, §2, §3, §4, §5, §6

A. baum. CIP-105742 = assay: MIC assay; type: cell-based; conditions: Acinetobacter baumannii, CIP105742; read-out: MIC A. baum. CIP-105742
Experimental: as §1, §2, §3, §4, §5, §6

A. baum. CIP-107292 = assay: MIC assay; type: cell-based; conditions: Acinetobacter baumannii, CIP107292; read-out: MIC A. baum. CIP-107292
Experimental: as §1, §2, §3, §4, §5, §6

A. baum. DSM-30008 = assay: MIC assay; type: cell-based; conditions: Acinetobacter baumannii, DSM30008; reference strain; read-out: MIC A. baum. DSM-30008
Experimental: as §1, §2, §3, §4, §5, §6

A. baum. R835 = assay: MIC assay; type: cell-based; conditions: Acinetobacter baumannii; read-out: MIC A. baum. R835
Experimental: as §1, §2, §3, §4, §5, §6

E. cloacae ATCC BAA-2468 = assay: MIC assay; type: cell-based; conditions: Enterobacter cloacae, ATCCBAA2468; read-out: MIC E. cloacae ATCC BAA-2468
Experimental: as §1, §2, §3, §4, §5, §6

E. coli ATCC-25922 = assay: MIC assay; type: cell-based; conditions: Escherichia coli, ATCC25922; reference strain; read-out: MIC E. coli ATCC-25922
Experimental: as §1, §2, §3, §4, §5, §6

E. coli LM705 = assay: MIC assay; type: cell-based; conditions: Escherichia coli, LM705, read-out: MIC E. coli LM705
Experimental: as §1, §2, §3, §4, §5, §6

K. pneum. CIP-104298 = assay: MIC assay; type: cell-based; conditions: Klebsiella pneumoniae, CIP104298; reference strain; read-out: MIC K. pneum. CIP-104298
Experimental: as §1, §2, §3, §4, §5, §6

K. pneum. KP10581 = assay: MIC assay; type: cell-based; conditions: Klebsiella pneumoniae; read-out: MIC K. pneum. KP10581
Experimental: as §1, §2, §3, §4, §5, §6

K. pneum. R-1525 = assay: MIC assay; type: cell-based; conditions: Klebsiella pneumoniae; read-out: MIC K. pneum. R-1525
Experimental: as §1, §2, §3, §4, §5, §6

P. ae. PA14 = assay: MIC assay; type: cell-based; conditions: Pseudomonas aeruginosa, PA14; reference strain; read-out: MIC P. ae. PA14
Experimental: as §1, §2, §3, §4, §5, §6

P. ae. PA14ΔmexAB = assay: MIC assay; type: cell-based; conditions: Pseudomonas aeruginosa, read-out: MIC P. ae. PA14ΔmexAB
Experimental: as §1, §2, §3, §4, §5, §6

S. aur. ATCC-29213 = assay: MIC assay; type: cell-based; conditions: Staphylococcus aureus, ATCC29213; reference strain; read-out: MIC S. aur. ATCC-29213
Experimental: as §1, §2, §3, §4, §5, §6

[1] = test system: S. pneum. DSM-11865 (PRSP); assay: MIC assay; type: cell-based; conditions: Streptococcus pneumoniae; read-out: MIC S. pneum. DSM-11865 (PRSP)
Experimental: as §1, §2, §3, §4, §5, §6

E. faec. DSM-17050 (VRE) = assay: MIC assay; type: cell-based, Enterococcus faecium; conditions: Enterococcus; read-out: MIC E. faec. DSM-17050 (VRE)
Experimental: as §1, §2, §3, §4, §5, §6

ESKAPE strains = assay: MIC-assays on a panel of representative ESKAPE strains, summary in words; type: cell-based; conditions: summary of the MIC tables
Experimental: as §1, §2, §3, §4, §5, §6

[2] = Experimental: 2.1 Materials and Methods […]
Determination of in vitro ADME properties
7, 8, 11 and 42. All samples were analysed via HPLC -MS/MS.
HPLC-MS/MS analysis of cystobactamids
AB Sciex QTrap 6500plus mass spectrometer. LC conditions were as follows: column:
Samples were run under acidic
For plasma stability experiments, samples were procured from commercial sources.
Human plasma was obtained from Antibodies-online (catalog no. ABIN5706569), and mouse plasma was obtained from Tebubio (catalog no. D408-04-0050).
The methods were performed in accordance with relevant guidelines and regulations and approved by the Helmholtz Centre for Infection Research. […]

[3] = metabolic stability assay, mouse microsomes; conditions: Table S4
[4] = metabolic stability assay, human microsomes; conditions: second microsome column of Table S4, head prints (M); mouse and human microsomes

| Compound | MIC (E. ae. CIP 106754) | MIC (A. baum. ATCC BAA-1710) | MIC (A. baum. CIP-105742) | MIC (A. baum. CIP-107292) | MIC (A. baum. DSM-30008) | MIC (A. baum. R835) | MIC (E. cloacae ATCC BAA-2468) | MIC (E. coli ATCC-25922) | MIC (E. coli LM705) | MIC (K. pneum. CIP-104298) | MIC (K. pneum. KP10581) | MIC (K. pneum. R-1525) | MIC (P. ae. PA14) | MIC (P. ae. PA14ΔmexAB) | MIC (S. aur. ATCC-29213) | MIC [1] | MIC (E. faec. DSM-17050 (VRE)) | antibacterial activity on the pathogen panel, in words (ESKAPE strains) | also measured |
| --- | --- | --- | --- | --- | --- | --- | --- | --- | --- | --- | --- | --- | --- | --- | --- | --- | --- | --- | --- |
| CO[C@@H](C(N)=O)[C@H](NC(=O)c1ccc(NC(=O)c2ccc(C#N)cc2)cc1)C(=O)Nc1ccc(C(=O)Nc2ccc(C(=O)Nc3ccc(C(=O)O)cc3)c(C(F)F)c2OC(C)C)cc1 [Cmpd. 9] | > 64 mg/L | > 8 mg/L | > 8 mg/L | > 8 mg/L | > 8 mg/L | > 8 mg/L | > 64 mg/L | > 8 mg/L | > 64 mg/L | > 64 mg/L | > 64 mg/L | > 64 mg/L | > 64 mg/L | > 64 mg/L | > 64 mg/L | > 64 mg/L | > 64 mg/L | complete elimination of activity |  |
| C#CCC(NC(=O)c1ccc(NC(=O)c2ccc(C#N)cc2)cc1)C(=O)Nc1ccc(C(=O)Nc2ccc(C(=O)Nc3ccc(C(=O)O)cc3)c(Cl)c2OC(C)C)cc1 (centres unmarked) [Cmpd. 5] | > 64 mg/L | > 8 mg/L | > 8 mg/L | > 8 mg/L | > 8 mg/L | > 8 mg/L | > 64 mg/L | > 64 mg/L | > 64 mg/L | > 64 mg/L | > 64 mg/L | > 64 mg/L | > 64 mg/L | > 64 mg/L | > 64 mg/L | > 64 mg/L | > 64 mg/L | abolished the activity in all tested strains |  |
| C#CC[C@H](NC(=O)c1ccc(NC(=O)c2ccc(C#N)cc2)cc1)C(=O)Nc1ccc(C(=O)Nc2ccc(C(=O)Nc3ccc(C(=O)O)cc3)nc2OC(C)C)cc1 [Cmpd. 8] | > 64 mg/L | > 64 mg/L |  | 8 mg/L (≈ 10.3 µM) |  | > 64 mg/L | > 64 mg/L | ≤ 0.03 mg/L | > 64 mg/L |  | > 64 mg/L | > 64 mg/L |  |  | > 64 mg/L |  | 0.25 mg/L (≈ 0.321 µM) |  | T1/2 PLASMA (H) ([2]; human plasma): > 4 h; T1/2 PLASMA (M) ([2]; mouse plasma): > 4 h; T1/2 MICROSOMES (M) [3]: > 1 h; T1/2 MICROSOMES (M) [4]: > 1 h |
| C#CC[C@H](NC(=O)c1ccc(NC(=O)c2ccc(C#N)cc2)cc1)C(=O)Nc1ccc(C(=O)Nc2ccc(-c3ccc(C(=O)O)cc3)c(O)c2OC(C)C)cc1 [Cmpd. 44] | > 64 mg/L | > 64 mg/L | > 64 mg/L | > 64 mg/L | > 64 mg/L | > 64 mg/L | > 64 mg/L | > 64 mg/L | > 64 mg/L | > 64 mg/L | > 64 mg/L | > 64 mg/L | > 64 mg/L | > 64 mg/L | > 64 mg/L | > 64 mg/L | < 0.03 mg/L | inactive |  |
| C#CC[C@H](NC(=O)c1ccc(NC(=O)c2ccc(C#N)cc2)cc1)C(=O)Nc1ccc(C(=O)Nc2ccc(CNc3ccc(C(=O)O)cc3)c(O)c2OC(C)C)cc1 [Cmpd. 41] | > 64 mg/L | 1 to 2 mg/L (≈ 1.28 to 2.57 µM) | > 8 mg/L | > 8 mg/L | > 8 mg/L | > 8 mg/L | > 64 mg/L | > 64 mg/L | > 64 mg/L | > 64 mg/L | > 64 mg/L | > 64 mg/L | > 64 mg/L | > 64 mg/L | 16 to 32 mg/L (≈ 20.5 to 41.1 µM) | > 64 mg/L | 16 to 32 mg/L (≈ 20.5 to 41.1 µM) | inactive |  |
| C#CC[C@H](NC(=O)c1ccc(NC(=O)c2ccc(C#N)cc2)cc1)C(=O)Nc1ccc(C(=O)Nc2ccc(C(=O)Nc3ccc(C(=O)O)cc3)c(Br)c2OC(C)C)cc1 [Cmpd. 6] | > 64 mg/L | > 8 mg/L | > 8 mg/L | > 8 mg/L | > 8 mg/L | > 8 mg/L | > 64 mg/L | > 64 mg/L | > 64 mg/L | > 64 mg/L | > 64 mg/L | > 64 mg/L | > 64 mg/L | > 64 mg/L | > 64 mg/L | > 64 mg/L | > 64 mg/L | abolished the activity in all tested strains |  |
| C#CC[C@H](NC(=O)c1ccc(NC(=O)c2ccc(C#N)cc2)cc1)C(=O)Nc1ccc(C(=O)Nc2ccc(-c3cn(-c4ccc(C(=O)O)cc4)nn3)c(O)c2OC(C)C)cc1 [Cmpd. 43] | > 64 mg/L | > 8 mg/L | > 8 mg/L | > 8 mg/L | > 8 mg/L | > 8 mg/L | > 64 mg/L | > 64 mg/L | > 64 mg/L | > 64 mg/L | > 64 mg/L | > 64 mg/L | > 64 mg/L | > 64 mg/L | > 64 mg/L | > 64 mg/L | > 64 mg/L | inactive |  |
| C#CC[C@H](NC(=O)c1ccc(NC(=O)c2ccc(C#N)cc2)cc1)C(=O)Nc1ccc(C(=O)Nc2ccc3c(=O)n(-c4ccc(C(=O)O)cc4)c(C)nc3c2OC(C)C)cc1 [Cmpd. 45a] | > 64 mg/L | 0.5 to 1 mg/L (≈ 0.613 to 1.23 µM) | 4 mg/L (≈ 4.9 µM) | > 8 mg/L | 8 mg/L (≈ 9.81 µM) | > 8 mg/L | > 64 mg/L | 2 to 4 mg/L (≈ 2.45 to 4.9 µM) | > 64 mg/L | > 64 mg/L | 4 mg/L (≈ 4.9 µM) | > 64 mg/L | > 64 mg/L | 16 to 32 mg/L (≈ 19.6 to 39.2 µM) | 4 mg/L (≈ 4.9 µM) | > 64 mg/L | 2 to 4 mg/L (≈ 2.45 to 4.9 µM) |  |  |
